In patent publication US20030003396A1, “Optical data carrier comprising a merocyanine dye as light-absorbent compound in the information layer” (priority 2001, published 2003):
Marks after values point to notes of the source that are not given here.

Legend:
[1] = UV absorption spectra measured in solution; type: physicochemical
Text: In the case of a write-once optical data carrier according to the invention which is written on and read by means of the light of a blue laser, preference is given to merocyanine dyes whose absorption maximum λmax1 is in the range from 340 to 410 nm, […] half of the […] one tenth of the absorbance value at λmax1 are preferably not more than 50 nm apart. Such a merocyanine dye preferably has no longer-wavelength maximum λmax2 up to a wavelength of 500 nm, particularly preferably up to 550 nm, very particularly preferably up to 600 nm.
The absorption spectra are measured, for example, in solution.
Suitable merocyanines having the required spectral properties are, in particular, those in which the dipole moment change Δμ=|μg−μag|, i.e. the positive difference between the dipole moments in the ground state and in the first excited state, is very small, preferably <5 D, particularly preferably <2 D. A method of determining such a dipole moment change Δμ is described, for example, in F. Würthner et al., Angew. Chem. 1997, 109, 2933, and in the literature cited therein. A low solvent-induced wavelength shift (dioxane/DMF) is likewise a suitable selection criterion. Preference is given to merocyanines whose solvent-induced wavelength shift Δλ=|λDMF−λdioxane|, i.e. the positive difference between the absorption wavelengths in the solvents dimethylformamide and dioxane, is <20 nm, particularly preferably <10 nm, very particularly preferably <5 nm

[2] = Solubility in coating solvent; conditions: in TFP (2,2,3,3-tetrafluoropropanol)
[3] = Table 1, on the short wavelength flank
[4] = Table 1, on the long wavelength flank
[5] = Table 2, on the short wavelength flank
[6] = Table 2, on the long wavelength flank

Compound	ε ([1]; Table 1)	λmax ([1]; Table 1, in dioxane)	ε ([1]; Table 2)	λmax ([1]; Table 2, in dioxane)	further results
CCOC(=O)C1=C(C#N)C(=O)N(C)C(=O)/C1=C/C=C1\N(C)c2ccccc2C1(C)C [Example 1]					ε (molar extinction coefficient) ([1]; at absorption maximum): 56010 L/mol/cm; UV λmax ([1]; in DMF): 609 nm; UV λmax ([1]; in dioxane): 587 nm; λ1/2-λ1/10 ([1]; long wavelength flank): 27 nm; Δλ (solvent-induced wavelength shift) ([1]; |λDMF−λdioxane|): 22 nm; Solubility [2]: > 2%
CN(C)c1ncc(C(C#N)=C(C#N)C#N)s1 [Example 5]	40990 L/mol/cm	470 nm			λ1/2-λ1/10 [1, 3]: 32^3) nm; Δλ ([1]; Table 1, |λDMF-λdioxane|): 16 nm
CCCCN(CCCC)c1ccc(C=C2C(=O)N(C)C(=O)N(C)C2=O)o1 [Example 9]	117700 L/mol/cm				λmax ([1]; Table 1, in DMF): 490^6) nm
CCCCCCCCCCCCN1C(=O)C(=Cc2ccc(N(C)C)o2)C(=O)N(C)C1=O [Example 15]	53360 L/mol/cm	483 nm			
CCCCN(CCCC)c1ccc(C=C2C(=O)N(C)C(=S)N(C)C2=O)o1 [Example 29]	153420 L/mol/cm	508 nm			λ1/2-λ1/10 [1, 4]: 11^4) nm
CCN(CC)c1ncc(C=C(C#N)[n+]2ccccc2)s1.[O-][Cl+3]([O-])([O-])[O-] [Example 33]	28360 L/mol/cm				λmax ([1]; Table 1, in methanol): 432^5) nm
CCCOC(=O)C(C#N)=CC=C1N(C)c2ccccc2C1(C)C [Example 38]			60390 L/mol/cm	429 nm	λ1/2-λ1/10 [1, 5]: 30^3) nm; Δλ ([1]; Table 2, |λDMF - λdioxane|): 7 nm
CN1C(=CC=C2C(=O)c3ccccc3C2=O)C(C)(C)c2ccccc21 [Example 39]			102220 L/mol/cm	487 nm	λ1/2-λ1/10 [1, 5]: 35^3) nm; Δλ ([1]; Table 2, |λDMF - λdioxane|): 6 nm
CN1C(=CC=C2C(=O)OC(C)(C)OC2=O)C(C)(C)c2ccccc21 [Example 40]			76260 L/mol/cm	448 nm	λ1/2-λ1/10 [1, 5]: 27^3) nm; Δλ ([1]; Table 2, |λDMF - λdioxane|): 2 nm
CN1C(=CC=C2C(=O)CC(C)(C)CC2=O)C(C)(C)c2ccccc21 [Example 41]			76130 L/mol/cm	469 nm	λ1/2-λ1/10 [1, 5]: 28^3) nm; Δλ ([1]; Table 2, |λDMF - λdioxane|): 3 nm
COc1ccc2c(c1)C(C)(C)C(=CC(C#N)=C(C#N)C#N)N2C [Example 43]			31345 L/mol/cm	511 nm	λ1/2-λ1/10 [1, 5]: 36^3) nm; Δλ ([1]; Table 2, |λDMF - λdioxane|): 6 nm
COc1ccc2c(c1)C(C)(C)C(=CC=C1C(=O)N(c3ccc(C4CCS(=O)(=O)C4)cc3)N=C1C)N2C (stereo not shown) [Example 50]			47640 L/mol/cm	473 nm	
CCOC(=O)C1=NN(c2ccccc2)C(=O)C1=CC=C1N(C)c2ccc(C(=O)OC)cc2C1(C)C [Example 52]			62720 L/mol/cm	496 nm	

More lines, main results first:

ε ([1]; Table 1)	λmax ([1]; Table 1, in dioxane)	ε ([1]; Table 2)	λmax ([1]; Table 2, in dioxane)	Compound	further results
62860 L/mol/cm	502 nm			CCCN1C(=O)C(=Cc2cnc(N(C)C)s2)C(C)=C(C#N)C1=O [Example 6]	λ1/2-λ1/10 [1, 3]: 33^3) nm
70880 L/mol/cm	472 nm			CCCCN(CCCC)c1ccc(C=C2C(=O)OC(C)(C)OC2=O)o1 [Example 8]	λ1/2-λ1/10 [1, 3]: 32^3) nm; Δλ ([1]; Table 1, |λDMF-λdioxane|): 5 nm
106640 L/mol/cm	539 nm			CCCCN(CCCC)c1ccc(C=C2C(=O)N(C)C(=O)C(C#N)=C2C)o1 [Example 10]	
78400 L/mol/cm	508 nm			CCCCN(CCCC)c1ncc(C=C2C(=O)N(CC)C(=O)C(C#N)=C2C)s1 [Example 13]	
112260 L/mol/cm	535 nm			CCCCN(CCCC)c1ccc(C=C2C(=O)N(CCOC)C(=O)C(C#N)=C2C)s1 [Example 14]	λ1/2-λ1/10 [1, 4]: 13^4) nm
128960 L/mol/cm	535 nm			CCCCCCN1C(=O)C(=Cc2ccc(N(C)C)o2)C(C)=C(C#N)C1=O [Example 16]	Δλ ([1]; Table 1, |λDMF-λdioxane|): 1.3 nm
115603 L/mol/cm				CCN1C(=O)C(=Cc2ccc(N3CCCC3)o2)C(C)=C(C#N)C1=O [Example 17]	λmax ([1]; Table 1, in DMF): 536^6) nm; Δλ ([1]; Table 1, |λDMF-λdioxane|): 2 nm
112260 L/mol/cm	535 nm			CCCCN(CCCC)c1ccc(C=C2C(=O)N(CCC)C(=O)C(C#N)=C2C)s1 [Example 18]	λ1/2-λ1/10 [1, 4]: 13^4) nm
62026 L/mol/cm	472 nm			CCN(CC)c1ncc(C=C2C(=O)c3ccccc3C2=O)s1 [Example 32]	λ1/2-λ1/10 [1, 3]: 42^3) nm
		113100 L/mol/cm	520 nm	CCCCN1C(=O)C(=CC=C2N(C)c3ccccc3C2(C)C)C(C)=C(C#N)C1=O [Example 42]	λ1/2-λ1/10 [1, 6]: 12^4) nm; Δλ ([1]; Table 2, |λDMF - λdioxane|): 2 nm
		55910 L/mol/cm	519 nm	CC1=C(C#N)C(=O)N(C2CCCCC2)C(=O)C1=CC=C1N(C)c2ccccc2C1(C)C [Example 45]	λ1/2-λ1/10 [1, 6]: 11^4) nm
